{"source": "patent US10793594B2", "about": "“Antimicrobial compounds and/or modulators of microbial infections and methods of using the same” (Indiana University Research and Technology Corporation, priority 2017, dated 2020)", "key": {"[1]": {"system": "Acinetobacter baumannii", "assay": "CO-ADD preliminary screen and hit confirmation against Acinetobacter baumannii", "assay_type": "cell-based", "conditions": "for hit confirmation against Acinetobacter baumannii: hit confirmation (HC), separated diastereomers; for activity against Acinetobacter baumannii in the preliminary screen: preliminary screen (PS)", "protocol": "(§1) Briefly, CO-ADD, The Community for Open Antimicrobial Drug Discovery, is a global open-access screening initiative launched in February 2015 to uncover significant and rich chemical diversity held outside of corporate screening collections. For screening, about 1 mg of pure compound is required and the compounds must be soluble in DMSO. In the preliminary screening, compounds are tested against some ESKAPE pathogens, including, but are not limited to, E. coli, K. pneumoniae, A. baumannii, P. aeruginosa, S. aureus (MRSA), as well as the fungi, for example, C. neoformans and C. albicans. The screen uses a single concentration (e.g., […]) and provides initial activity data to select compounds for further more detailed screening. Active compounds from the preliminary screening are tested in dose response antimicrobial assays to confirm their activity. Active compounds are screened for adverse effects, such as cytotoxicity, critical micelle concentration and membrane depolarization, as well as for their purity. Then, the hit compound is tested against a broader panel of microbes with multidrug-resistant (MDR) and pan-resistant bacterial strains and clinical isolates, with different co-factors (such as serum or lung surfactant). The hit validation includes initial ADMET screening, including haemolysis, microsome and plasma stability and protein binding. See CO-ADD website for more details.\n(§2) The minimum inhibitory concentration (MIC) was determined following the CLSI (Clinical Laboratory and Standards Institute) guidelines, identifying the lowest concentration at which full inhibition of the bacteria or fungi has been detected. […] Note that MIC values are discrete values based on the concentration in a specific well.\n(§3) Selection of Hits: Samples with MIC (≤16 μg/mL or ≤10 μM) are declared as a hit. For toxicity (cytotoxicity and haemolytic activity) all sample/s with CC50/HC10≤maximum tested concentration are considered active, or toxic. Since the maximum tested concentration is the same for toxicity and antimicrobial activity, no therapeutic index (MIC/CC50 or MIC/HC10) can be calculated and all sample/s with toxic activity are flagged.\nReferring now to FIGS. 52 and 53, inhibition of bacterial growth was determined measuring absorbance at 600 nm (OD600), using a Tecan M1000 Pro monochromator plate reader. The percentage of growth inhibition was calculated for each well, using the negative control (media only) and positive control (bacteria without inhibitors) on the same plate as references.\nSamples were prepared in DMSO and water to a final testing concentration of 32 μg/mL or 20 μM and serially diluted 1:2 fold for 8 times. Each sample concentration was prepared in 384-well plates, non-binding surface plate (NBS; Corning 3640) for each bacterial/fungal strain or Tissue-culture treated (TC-treated; Corning 3712/3764) black for mammalian cell types, all in duplicate (n=2), and keeping the final DMSO concentration to a maximum of 0.5% DMSO. All the sample preparation was done using liquid handling robots.\nFor the antibacterial screening, all bacteria were cultured in Cation-adjusted Mueller Hinton broth (CAMHB) at 37° C. overnight. A sample of each culture was then diluted 40-fold in fresh broth and incubated at 37° C. for 1.5-3 h. The resultant mid-log phase cultures were diluted (CFU/mL measured by OD600), then added to each well of the compound containing plates, giving a cell density of 5×10^5 CFU/mL and a total volume of 50 μL. All the plates were covered and incubated at 37° C. for 18 h without shaking."}, "[2]": {"system": "bacterial biofilms", "conditions": "cited from earlier work"}, "[3]": {"system": "Pseudomonas aeruginosa (PA14)", "assay": "Pa biofilm formation/growth inhibition assay (crystal violet)", "assay_type": "cell-based", "conditions": "phenylalanine deficient biofilm assay"}, "[4]": {"system": "Cryptococcus neoformans (Cn)", "assay": "CO-ADD antimicrobial screening, growth of Cryptococcus neoformans (MIC)", "assay_type": "cell-based", "protocol": "Briefly, CO-ADD, The Community for Open Antimicrobial Drug Discovery, is a global open-access screening initiative launched in February 2015 to uncover significant and rich chemical diversity held outside of corporate screening collections. For screening, about 1 mg of pure compound is required and the compounds must be soluble in DMSO. In the preliminary screening, compounds are tested against some ESKAPE pathogens, including, but are not limited to, E. coli, K. pneumoniae, A. baumannii, P. aeruginosa, S. aureus (MRSA), as well as the fungi, for example, C. neoformans and C. albicans. The screen uses a single concentration (e.g., […]) and provides initial activity data to select compounds for further more detailed screening. Active compounds from the preliminary screening are tested in dose response antimicrobial assays to confirm their activity. […]\nThe minimum inhibitory concentration (MIC) was determined following the CLSI (Clinical Laboratory and Standards Institute) guidelines, identifying the lowest concentration at which full inhibition of the bacteria or fungi has been detected. […]\nFungi strains were cultured for 3 days on Yeast Extract-Peptone Dextrose (YPD) agar at 30° C. A yeast suspension of 1×106 to 5×10^6 CFU/mL (as determined by OD530) was prepared from five colonies. […]"}, "[5]": {"system": "Ca and/or Cn (Candida albicans, Cryptococcus neoformans)", "assay": "CO-ADD preliminary screen and hit confirmation against fungi", "assay_type": "cell-based", "conditions": "two replicated lots, mixtures of enantiomers or diastereomers; for preliminary activity against Ca and/or Cn (preliminary screen): single concentration", "protocol": "as §1, §2, §3\nGrowth inhibition of C. albicans was determined measuring absorbance at 530 nm (OD530), while the growth inhibition of C. neoformans was determined measuring the difference in absorbance between 600 and 570 nm (OD600-570), after the addition of resazurin (0.001% final concentration) and incubation at 35° C. for additional 2 h. The absorbance was measured using a Biotek Synergy HTX plate reader. The percentage of growth inhibition was calculated for each well, using the negative control (media only) and positive control (bacteria without inhibitors) on the same plate as references. Percentage growth inhibition of an individual sample is calculated based on Negative controls (media only) and Positive Controls (bacterial/fungal media without inhibitors). Negative inhibition values indicate that the growth rate (or OD600) is higher compared to the Negative Control (Bacteria/fungi only, set to 0% inhibition). The growth rates for all bacteria and fungi has a variation of −/+10%, which is within the reported normal distribution of bacterial/fungal growth.\nIn addition, two values are used as quality controls for individual plates: Z′-Factor [1−(3*(sd(NegCtrl)+sd(PosCtrl))/(average(PosCtrl)−average(NegCtrl)))] and Standard Antibiotic controls at different concentrations (>MIC and <MIC). […] Active samples are defined as those with inhibition values equal to or above 80% and abs(Z-Score) above 12.51 for either replicate (n=2 on different plates) were classed as active. Partially active compounds are defined as those with inhibition values between 50.9%-79.9% or abs(Z-Score) below 12.51.\nSamples were prepared in DMSO and water to a final testing concentration of 32 μg/mL or 20 μM and serially diluted 1:2 fold for 8 times. […]"}}, "note": "Where a SMILES comes first, the peptide text is derived from it. [ ]: non-standard residue; d: D form. ξ: configuration not given here. ξPhe(3-F) = NC(Cc1cccc(F)c1)C(=O)O; ξPhe(4-F) = NC(Cc1ccc(F)cc1)C(=O)O", "data": [{"smiles": "C[C@H](N)C(=O)N[C@@H](Cc1ccc(F)cc1)C(=O)O", "note": "(single isomer, unassigned) [25a]", "values": [{"measurement": "hit confirmation against Acinetobacter baumannii", "setting": "[1]", "value": "hit confirmation was observed"}, {"measurement": "activity against Acinetobacter baumannii in the preliminary screen", "setting": "[1]", "value": "not seen"}]}, {"smiles": "C[C@H](N)C(=O)N[C@@H](Cc1cccc(F)c1)C(=O)O", "note": "(single isomer, unassigned) [44a]", "values": [{"measurement": "hit confirmation against Acinetobacter baumannii", "setting": "[1]", "value": "hit confirmation was observed"}, {"measurement": "activity against Acinetobacter baumannii in the preliminary screen", "setting": "[1]", "value": "not seen"}]}, {"smiles": "N[C@@H](Cc1ccc(O)cc1)C(=O)N[C@@H](Cc1cccc(F)c1)C(=O)O", "note": "(single isomer, unassigned) [45a]", "values": [{"measurement": "hit confirmation against Acinetobacter baumannii", "setting": "[1]", "value": "hit confirmation was observed"}, {"measurement": "activity against Acinetobacter baumannii in the preliminary screen", "setting": "[1]", "value": "not seen"}]}, {"smiles": "N[C@H](Cc1ccc(O)cc1)C(=O)O", "note": "[D-Tyrosine]", "values": [{"measurement": "trigger for the disassembly of bacterial biofilms", "setting": "[2]", "value": "particularly active"}]}, {"smiles": "C[C@H](N)C(=O)NC(Cc1ccc(F)cc1)C(=O)O", "note": "(stereo partly drawn) [compound 25, (2R,2S)-[2-((S)-2-aminopropanamido)]-3-(4-fluorophenyl)propanoic acid]", "values": [{"measurement": "ability to inhibit the growth of P. aeruginosa (Pa) in a biofilm assay", "setting": "[3]", "value": "potent ability to inhibit the growth"}, {"measurement": "inhibitory effects on the growth of Cryptococcus neoformans (Cn)", "setting": "[4]", "value": "exhibited inhibitory effects"}, {"measurement": "activity against Ca and/or Cn confirmed (hit confirmation)", "setting": "[5]", "value": "confirmed"}]}, {"smiles": "NCC(=O)NC(Cc1ccc(F)cc1)C(=O)O", "note": "[compound 30, (2R,2S)-[2-(2-aminoacetamido)]-3-(4-fluorophenyl)propanoic acid] (H-Gly-[ξPhe(4-F)]-OH)", "values": [{"measurement": "preliminary activity against Ca and/or Cn (preliminary screen)", "setting": "[5]", "value": "preliminary activity"}]}, {"smiles": "C[C@H](N)C(=O)NC(Cc1ccccc1F)C(=O)O", "note": "(stereo partly drawn) [compound 36, (2R,2S)-[2-((S)-2-aminopropanamido)-3-(2-fluorophenyl)]propanoic acid]", "values": [{"measurement": "ability to inhibit the growth of P. aeruginosa (Pa) in a biofilm assay", "setting": "[3]", "value": "potent ability to inhibit the growth"}, {"measurement": "inhibitory effects on the growth of Cryptococcus neoformans (Cn)", "setting": "[4]", "value": "exhibited inhibitory effects"}, {"measurement": "activity against Ca and/or Cn confirmed (hit confirmation)", "setting": "[5]", "value": "confirmed"}]}, {"smiles": "NCC(=O)NC(Cc1cccc(F)c1)C(=O)O", "note": "[compound 43, (2R,2S)-[2-(2-aminoacetamido)]-3-(3-fluorophenyl)propanoic acid] (H-Gly-[ξPhe(3-F)]-OH)", "values": [{"measurement": "preliminary activity against Ca and/or Cn (preliminary screen)", "setting": "[5]", "value": "preliminary activity"}]}, {"smiles": "C[C@H](N)C(=O)NC(Cc1cccc(F)c1)C(=O)O", "note": "(stereo partly drawn) [compound 44, (2R,2S)-[2-((S)-2-aminopropanamido)]-3-(3-fluorophenyl)propanoic acid]", "values": [{"measurement": "activity against Ca and/or Cn confirmed (hit confirmation)", "setting": "[5]", "value": "confirmed"}]}, {"smiles": "N[C@@H](Cc1ccc(O)cc1)C(=O)NC(Cc1cccc(F)c1)C(=O)O", "note": "(stereo partly drawn) [compound 45, (2R,2S)-[2-((S)-2-amino-3-(4-hydroxyphenyl)propanamido)]-3-(3-fluorophenyl)propanoic acid]", "values": [{"measurement": "preliminary activity against Ca and/or Cn (preliminary screen)", "setting": "[5]", "value": "preliminary activity"}]}, {"smiles": "CC(C)C[C@H](N)C(=O)NC(Cc1cccc(F)c1)C(=O)O", "note": "(stereo partly drawn) [compound 46, (2R,2S)-[2-((S)-2-amino-4-methylpentanamido)]-3-(3-fluorophenyl)propanoic acid]", "values": [{"measurement": "preliminary activity against Ca and/or Cn (preliminary screen)", "setting": "[5]", "value": "preliminary activity"}]}, {"smiles": "O=C(O)C(Cc1cccc(F)c1)NC(=O)[C@@H]1CCCN1", "note": "(stereo partly drawn) [compound 48, (2R,2S)-[3-(3-fluorophenyl)]-2-((S)-pyrrolidine-2-carboxamido)propanoic acid] (H-Pro-[ξPhe(3-F)]-OH)", "values": [{"measurement": "preliminary activity against Ca and/or Cn (preliminary screen)", "setting": "[5]", "value": "preliminary activity"}]}, {"smiles": "N[C@H](C(=O)NC(Cc1cccc(F)c1)C(=O)O)c1ccccc1", "note": "(stereo partly drawn) [compound 52, (2R,2S)-[2-((S)-2-amino-2-phenylacetamido)]-3-(3-fluorophenyl)propanoic acid]", "values": [{"measurement": "preliminary activity against Ca and/or Cn (preliminary screen)", "setting": "[5]", "value": "preliminary activity"}]}, {"smiles": "C[C@@H](O)[C@H](N)C(=O)NC(Cc1ccc(F)cc1)C(=O)O", "note": "(stereo partly drawn) [compound 108, (2R,2S)-[((2S,3R)-2-amino-3-hydroxybutanamido)]-3-(4-fluorophenyl)propanoic acid] (H-Thr-[ξPhe(4-F)]-OH)", "values": [{"measurement": "ability to inhibit the growth of P. aeruginosa (Pa) in a biofilm assay", "setting": "[3]", "value": "had shown activity"}]}]}
